Assay results: US9867795B2, “Nitrated lipids and methods of making and using thereof” (The UAB Research Foundation, priority 2004, dated 2018)

Tests used:
Assay type in all cases: cell-based
[1] = molecular target: T1, hPPARδ (Homo sapiens, UniProt Q03181); assay: CV-1 PPRE×3 TK-Luciferase transient transfection assay; settings: PPRE reporter, CV-1 cells
T1 construct: For assessing full-length PPAR receptors, CV-1 cells were transiently co-transfected; expressed in transfected cells; host or cells: CV-1 cells
T1 sequence (Q03181 1-441): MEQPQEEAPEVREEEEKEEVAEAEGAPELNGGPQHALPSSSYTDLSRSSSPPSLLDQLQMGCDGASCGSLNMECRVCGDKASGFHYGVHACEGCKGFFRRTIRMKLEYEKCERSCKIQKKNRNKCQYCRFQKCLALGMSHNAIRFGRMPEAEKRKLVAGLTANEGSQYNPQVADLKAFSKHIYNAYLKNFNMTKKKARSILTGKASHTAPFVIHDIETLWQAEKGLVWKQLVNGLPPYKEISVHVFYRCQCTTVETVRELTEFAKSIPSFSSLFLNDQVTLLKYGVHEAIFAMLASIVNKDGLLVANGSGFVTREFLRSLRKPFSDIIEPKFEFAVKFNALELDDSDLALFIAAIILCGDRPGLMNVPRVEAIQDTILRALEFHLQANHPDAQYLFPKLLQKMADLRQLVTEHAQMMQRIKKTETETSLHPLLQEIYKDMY
Protocol: Cell Transient Transfection Assay. CV-1 cells from ATCC (Manassas, Va.) were grown to ˜85% confluence in DMEM/F12 supplemented with 10% FBS, 1% penicillin-streptomycin. Then, cells were transiently co-transfected with a plasmid containing the luciferase gene under regulation by four Gal4 DNA binding elements (UASG×4 TK-Luciferase, a gift from Dr. Ronald M. Evans), in concert with plasmids containing the ligand binding domain for the different nuclear receptors fused to the Gal4 DNA binding domain. For assessing full-length PPAR receptors, CV-1 cells were transiently co-transfected with a plasmid containing the luciferase gene under the control of three tandem PPAR response elements (PPRE) (PPRE×3 TK-Luciferase) and hPPARγ, hPPARα or hPPARδ expression plasmids, respectively. In all cases, fluorescence protein (GFP) expression plasmid was co-transfected as the control for the transfection efficiency. Twenty-four hours after the transfection, cells were cultured for another 24 hours in Optium-MEM (Invitrogen, Carlsbad, Calif.). Then, cells were treated with different compounds as indicated in figures for 24 hours in Optium-MEM. […]
PPAR transient transfection assay. […] In all cases, fluorescence protein (GFP) expression plasmid was co-transfected as the control for transfection efficiency. […]

[2] = molecular target: T2, mineralocorticoid receptor (MR) (Homo sapiens, UniProt P08235); assay: CV-1 Gal4 ligand binding domain luciferase reporter assay; settings: LNO2 1 μM; CV-1 cells
T2 construct: expressed in transfected cells; host or cells: CV-1 cells
T2 sequence (P08235 726-964 limits assumed): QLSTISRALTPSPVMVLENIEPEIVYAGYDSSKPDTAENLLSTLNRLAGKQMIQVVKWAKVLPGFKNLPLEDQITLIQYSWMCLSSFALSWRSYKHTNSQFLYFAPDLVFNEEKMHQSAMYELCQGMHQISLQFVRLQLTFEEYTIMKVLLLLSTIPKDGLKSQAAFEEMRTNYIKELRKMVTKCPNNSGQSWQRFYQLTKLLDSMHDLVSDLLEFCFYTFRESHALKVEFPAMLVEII
Protocol: (§1) Cell Transient Transfection Assay. CV-1 cells from ATCC (Manassas, Va.) were grown to ˜85% confluence in DMEM/F12 supplemented with 10% FBS, 1% penicillin-streptomycin. Then, cells were transiently co-transfected with a plasmid containing the luciferase gene under regulation by four Gal4 DNA binding elements (UASG×4 TK-Luciferase, a gift from Dr. Ronald M. Evans), in concert with plasmids containing the ligand binding domain for the different nuclear receptors fused to the Gal4 DNA binding domain. For assessing full-length PPAR receptors, CV-1 cells were transiently co-transfected with a plasmid containing the luciferase gene under the control of three tandem PPAR response elements (PPRE) (PPRE×3 TK-Luciferase) and hPPARγ, hPPARα or hPPARδ expression plasmids, respectively. In all cases, fluorescence protein (GFP) expression plasmid was co-transfected as the control for the transfection efficiency. Twenty-four hours after the transfection, cells were cultured for another 24 hours in Optium-MEM (Invitrogen, Carlsbad, Calif.). Then, cells were treated with different compounds as indicated in figures for 24 hours in Optium-MEM. Reporter luciferase assay kits from Promega (Madison, Wis.) were used to measure the luciferase activity according to the manufacturer's instructions with a luminometer (Victor II, Perkin-Elmer). Luciferase activity was normalized by GFP units. Each condition was performed at least in triplicates in each experiment.

[3] = molecular target: T3, retinoic X receptor α (RXRα) (Homo sapiens, UniProt P19793); assay: as above; settings: LNO2 1 μM; CV-1 cells
T3 construct: expressed in transfected cells; host or cells: CV-1 cells
T3 sequence (P19793 227-458 limits assumed): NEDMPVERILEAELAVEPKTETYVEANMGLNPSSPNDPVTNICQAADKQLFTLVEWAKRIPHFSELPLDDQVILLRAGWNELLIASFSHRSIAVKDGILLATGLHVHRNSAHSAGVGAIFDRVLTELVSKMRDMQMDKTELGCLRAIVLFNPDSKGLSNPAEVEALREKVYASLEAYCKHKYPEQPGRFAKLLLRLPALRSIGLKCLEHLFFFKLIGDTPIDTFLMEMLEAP
Protocol: as §1

[4] = molecular target: T4, progesterone receptor (PR) (Homo sapiens, UniProt P06401); assay: as above; settings: LNO2 1 μM; CV-1 cells
T4 construct: expressed in transfected cells; host or cells: CV-1 cells
T4 sequence (P06401 679-913 limits assumed): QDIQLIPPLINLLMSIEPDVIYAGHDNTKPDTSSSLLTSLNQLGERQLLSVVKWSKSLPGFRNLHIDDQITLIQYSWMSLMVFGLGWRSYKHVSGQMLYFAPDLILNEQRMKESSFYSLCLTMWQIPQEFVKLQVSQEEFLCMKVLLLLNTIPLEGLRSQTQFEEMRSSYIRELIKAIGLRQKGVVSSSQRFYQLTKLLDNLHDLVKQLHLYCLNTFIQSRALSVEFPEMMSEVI
Protocol: as §1

Substance	concentration at which PPARδ activation is significantly different from vehicle ([1]; FIG. 17 legend) [µM]	concentration at which PPARδ shows significant activation ([1]; text of Example 3) [nM]	MR receptor activation [2]	RXRα receptor activation [3]	PR receptor activation [4]
9- and 10-nitro-9-cis-octadecenoic acid [OA-NO2]	1	~300	–	–	–
10-nitro-9,12-octadecadienoic acid and 12-nitro-9,12-octadecadienoic acid [LNO2]	–	–	no impact	no impact	no impact
